# Source: patent US20110098177A1, “METHODS AND COMPOSITIONS OF PLANT MICRONUTRIENTS” (NOVUS INTERNATIONAL INC., priority 2006, published 2011)
# Assays:
# Assay type in all cases: in vivo
# Tygress tomato plants [1] = assay: Foliar nutrient concentration at 7 WAT, greenhouse tomato spring 2009 (Examples 13-15); settings: tomato leaves 1 week after treatment
# In short: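 Greenhouse 'Tygress' tomatoes in micronutrient-deficient medium received foliar treatments at 6 WAT (200 mL/plant, deionized water plus non-ionic surfactant). Newest non-applied leaves sampled at 7 WAT and analysed for N, P, K, Mg, Ca, B, Zn, Mn, Fe and Cu. Randomized complete block design with 6 replications; means separated by LSD at 5%.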
# Tygress tomato plants [2] = assay: Yields of tomato fruits, greenhouse spring 2009 (Examples 13-15)
# In short: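 Greenhouse 'Tygress' tomatoes in micronutrient-deficient medium received foliar Cu/Fe source treatments at 6 WAT (200 mL/plant, deionized water plus non-ionic surfactant). Marketable fruit was harvested three times from 10 WAT and graded by size. RCBD, 6 replications, GLM with LSD at 5%.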
# [3] = test system: soybean plants (Asgrow 1102); assay: Soybean seed protein and oil content (Examples 11-12); settings: in %
# Method: The following experiments were performed on soybean plants growing in open-field plots during the summer and fall of 2008 at two production fields in West Central Minnesota. […] Trial design was a randomized complete block with 4 replications. Each plot measured 10' by 30' and consisted of five 22'' rows. Although all five rows of each plot were treated, only the center three rows (25' in length) of each plot were machine harvested. The two fields selected for these studies had historical Iron Deficiency Chlorosis (IDC) issues. The two field sites were planted by farmers with elite Roundup Ready commodity type soybean varieties with IDC tolerance (Asgrow 1102, Monsanto Corp.). […] BIOX-M was applied at a rate of 1.12 kg Mn/ha. […] All V4 treatments were applied in 10 gallons per acre of water with a backpack sprayer with a hand boom designed to “band” apply product directly to the plant row. Three nozzles with ConeJet TXVS-2 tips were oriented on either side and over the top of each row. This maximized the applied product to the plant tissue itself and minimized application of product to the soil surface. […] The V6 treatments (where applicable) were applied in 20 gallons per acre of water to increase the suspension of the BIOX products. Soybean seed was harvested after soybean maturity was reached (3 October at […], and 17 Oct. 2008 at Foxhome) and seed yields for each experimental treatment group were determined. In addition, seed samples from each treatment were dried to 13% moisture content, then analyzed for protein and oil content.
# [4] = test system: soybean plants (Asgrow 1102); assay: ICP-MS micronutrient content of soybean trifoliates (Examples 11-12); set-up: Micronutrient content from ICP-MS analysis: Mn: unit not given here; settings: for Micronutrient content from ICP-MS analysis: Fe: in ppm (unit assumed)
# Method: The following experiments were performed on soybean plants growing in open-field plots during the summer and fall of 2008 at two production fields in West Central Minnesota. […] Trial design was a randomized complete block with 4 replications. Each plot measured 10' by 30' and consisted of five 22'' rows. Although all five rows of each plot were treated, only the center three rows (25' in length) of each plot were machine harvested. The two fields selected for these studies had historical Iron Deficiency Chlorosis (IDC) issues. The two field sites were planted by farmers with elite Roundup Ready commodity type soybean varieties with IDC tolerance (Asgrow 1102, Monsanto Corp.). […] BIOX-M was applied at a rate of 1.12 kg Mn/ha. […] All V4 treatments were applied in 10 gallons per acre of water with a backpack sprayer with a hand boom designed to “band” apply product directly to the plant row. Three nozzles with ConeJet TXVS-2 tips were oriented on either side and over the top of each row. This maximized the applied product to the plant tissue itself and minimized application of product to the soil surface. […] The V6 treatments (where applicable) were applied in 20 gallons per acre of water to increase the suspension of the BIOX products. […] The harvested plants were dried, ground, and subjected to Inductively Coupled Plasma-Mass Spectrometry (ICP-MS) analysis to determine plant micronutrient content.
compound,measurement,setting,value
"CSCCC(O)C(=O)[O-].CSCCC(O)C(=O)[O-].[Cu+2] (stereo not shown) [BIOX-Cu, Cu-HMTBA]",Foliar Cu concentration,Tygress tomato plants [1]; Cu 0.14 lb/acre,72 ppm
same,Foliar Cu concentration,Tygress tomato plants [1]; Cu 0.28 lb/acre,91 ppm
same,Foliar Cu concentration,Tygress tomato plants [1]; Cu 0.46 lb/acre,208 ppm
same,Foliar Cu concentration,Tygress tomato plants [1]; Cu 0.55 lb/acre,397 ppm
same,"Marketable tomato yields compared to non-treated control, statement","Tygress tomato plants [2]; BIOX-Cu at 0.46 and 0.55 lb/acre, Cu-sulfate at 0.8 lb/acre, BIOX-EDC at 0.4 lb/acre",did not alter marketable yields relative to the non-treated control
same,"Marketable tomato yields compared to non-treated control, statement",Tygress tomato plants [2]; BIOX-Cu at the 0.14 and 0.28 lb/acre levels,significantly increased marketable tomato yields
same,Marketable yield,Tygress tomato plants [2]; Cu 0.14 lb/acre,2350 a g/plant
same,Marketable yield,Tygress tomato plants [2]; Cu 0.28 lb/acre,2500 a g/plant
same,Marketable yield,Tygress tomato plants [2]; Cu 0.46 lb/acre,1250 b g/plant
same,Marketable yield,Tygress tomato plants [2]; Cu 0.55 lb/acre,1700 b g/plant
"CSCCC(O)C(=O)[O-].CSCCC(O)C(=O)[O-].[Mn+2] (stereo not shown) [BIOX-M, Mn-HMTBA]",Oil content (13% moisture),"[3]; 7.0 kg/ha, V4, Foxhome",18.28
same,Protein content (13% moisture),"[3]; 7.0 kg/ha, V4, Foxhome",32.90
same,Oil content (13% moisture),"[3]; 7.0 kg/ha, V4, Renville",19.97
same,Protein content (13% moisture),"[3]; 7.0 kg/ha, V4, Renville",31.97
same,Micronutrient content from ICP-MS analysis: Mn,"[4]; 7.0 kg/ha, V4, Foxhome",78.31
same,Micronutrient content from ICP-MS analysis: Fe,"[4]; 7.0 kg/ha, V4, Foxhome",90.52
same,Micronutrient content from ICP-MS analysis: Mn,"[4]; 7.0 kg/ha, V4, Renville",88.64
same,Micronutrient content from ICP-MS analysis: Fe,"[4]; 7.0 kg/ha, V4, Renville",99.40
Fe-HMTBA [BIOX-Fe],Oil content (13% moisture),"[3]; 0.558 kg/ha, V4, V6, Foxhome",18.42
same,Protein content (13% moisture),"[3]; 0.558 kg/ha, V4, V6, Foxhome",32.73
same,Oil content (13% moisture),"[3]; 0.558 kg/ha, V4, V6, Renville",20.16
same,Protein content (13% moisture),"[3]; 0.558 kg/ha, V4, V6, Renville",32.04
same,Oil content (13% moisture),"[3]; 0.558 kg/ha, V4, Foxhome",18.46
same,Protein content (13% moisture),"[3]; 0.558 kg/ha, V4, Foxhome",32.60
same,Oil content (13% moisture),"[3]; 0.558 kg/ha, V4, Renville",20.12
same,Protein content (13% moisture),"[3]; 0.558 kg/ha, V4, Renville",31.93
same,Oil content (13% moisture),"[3]; 1.12 kg/ha, V4, V6, Foxhome",18.40
same,Protein content (13% moisture),"[3]; 1.12 kg/ha, V4, V6, Foxhome",32.68
same,Oil content (13% moisture),"[3]; 1.12 kg/ha, V4, V6, Renville",20.10
same,Protein content (13% moisture),"[3]; 1.12 kg/ha, V4, V6, Renville",32.36
same,Oil content (13% moisture),"[3]; 1.12 kg/ha, V4, Foxhome",18.48
same,Protein content (13% moisture),"[3]; 1.12 kg/ha, V4, Foxhome",32.47
same,Oil content (13% moisture),"[3]; 1.12 kg/ha, V4, Renville",20.28
same,Protein content (13% moisture),"[3]; 1.12 kg/ha, V4, Renville",32.23
same,Micronutrient content from ICP-MS analysis: Mn,"[4]; 0.558 kg/ha, V4, V6, Foxhome",76.21
same,Micronutrient content from ICP-MS analysis: Fe,"[4]; 0.558 kg/ha, V4, V6, Foxhome",88.30
same,Micronutrient content from ICP-MS analysis: Mn,"[4]; 0.558 kg/ha, V4, V6, Renville",96.44
same,Micronutrient content from ICP-MS analysis: Fe,"[4]; 0.558 kg/ha, V4, V6, Renville",96.26
same,Micronutrient content from ICP-MS analysis: Mn,"[4]; 0.558 kg/ha, V4, Foxhome",81.82
same,Micronutrient content from ICP-MS analysis: Fe,"[4]; 0.558 kg/ha, V4, Foxhome",83.38
same,Micronutrient content from ICP-MS analysis: Mn,"[4]; 0.558 kg/ha, V4, Renville",88.29
same,Micronutrient content from ICP-MS analysis: Fe,"[4]; 0.558 kg/ha, V4, Renville",98.39
same,Micronutrient content from ICP-MS analysis: Mn,"[4]; 1.12 kg/ha, V4, V6, Foxhome",87.67
same,Micronutrient content from ICP-MS analysis: Fe,"[4]; 1.12 kg/ha, V4, V6, Foxhome",83.35
same,Micronutrient content from ICP-MS analysis: Mn,"[4]; 1.12 kg/ha, V4, V6, Renville",89.00
same,Micronutrient content from ICP-MS analysis: Fe,"[4]; 1.12 kg/ha, V4, V6, Renville",98.74
same,Micronutrient content from ICP-MS analysis: Mn,"[4]; 1.12 kg/ha, V4, Foxhome",72.70
same,Micronutrient content from ICP-MS analysis: Fe,"[4]; 1.12 kg/ha, V4, Foxhome",84.93
same,Micronutrient content from ICP-MS analysis: Mn,"[4]; 1.12 kg/ha, V4, Renville",76.15
same,Micronutrient content from ICP-MS analysis: Fe,"[4]; 1.12 kg/ha, V4, Renville",97.42
same,Foliar Fe concentration,Tygress tomato plants [1]; Fe 0.28 lb/acre,249 ppm
same,Foliar Fe concentration,Tygress tomato plants [1]; Fe 0.57 lb/acre,388 ppm
same,Foliar Fe concentration,Tygress tomato plants [1]; Fe 1.12 lb/acre,517 ppm
same,Foliar Fe concentration,Tygress tomato plants [1]; Fe 1.74 lb/acre,453 ppm
same,Foliar Fe concentration,Tygress tomato plants [1]; Fe 2.3 lb/acre,383 ppm
same,"Marketable tomato yields compared to non-treated control, statement","Tygress tomato plants [2]; BIOX-Fe at all levels, Fe-sulfate at 2.0 lb/acre, BIOX-EDF at 0.3 lb/acre",significantly higher marketable tomato yields than the non-treated control
same,Marketable yield,Tygress tomato plants [2]; Fe 0.28 lb/acre,1750 g/plant
same,Marketable yield,Tygress tomato plants [2]; Fe 0.57 lb/acre,1900 g/plant
same,Marketable yield,Tygress tomato plants [2]; Fe 1.12 lb/acre,2100 g/plant
same,Marketable yield,Tygress tomato plants [2]; Fe 1.74 lb/acre,1900 g/plant
same,Marketable yield,Tygress tomato plants [2]; Fe 2.3 lb/acre,2400 g/plant
